Laboratory results published in patent US20250296956A1, “POLYPEPTIDE, PREPARATION METHOD, AND USE THEREOF” (Hunan University, priority 2022, published 2025).
pIC50: −log10 of the molar value. Bridge positions count the residues as written; N and C are the ends. Ends that are not written are not given here. Peptide text beside a SMILES is read from it.

Columns and labels:
RNA methylation = assay: Determination of RNA methylation (m6A) in prostate cancer cells, dot blot; assay type: cell-based, human; settings: PC3 and DU145 cells, 12 hours
Procedure: In FIG. 3, MB is methylene blue staining, and m^6A is methylation content. 500 ng and 3000 ng are the loaded sample amounts of RNA in the experiment.

METTL3 = target: T1, METTL3 (Homo sapiens, UniProt Q86U44); assay: Inhibition of METTL3 expression in prostate cancer cells, immunoblot; assay type: cell-based; settings: PC3 and DU145 cells, 20 μM, 24 hours
T1 construct: endogenous in cells; host or cells: PC3 and DU145 cells
Procedure: Referring to FIG. 4, a certain amount of polypeptide was weighed and dissolved into a 50 mM mother solution, the polypeptides R9, RM3, and RSM3 were prepared into a 50 mM mother solution with sterile pure water, after gradient dilution, the mother solution were added to a 6-well plate with PC3 and DU145 cells pre-laid, the final concentration of the polypeptide was 20 μM, 2 mL per well, and three replicates were used for each concentration. After 24 hours of treatment, the cells were lysed to extract cell proteins, and the proteins were separated by electrophoresis and transferred to a PVDF membrane, to incubate the primary antibody and secondary antibody of METTL3, and finally exposed for imaging.
In FIG. 4, GAPDH is an internal reference in the immunoblotting experiment (WB experiment).

PC3 cells = assay: Growth/proliferation inhibition, CCK-8 and clone formation, PC3; assay type: cell-based, human; settings: for effect of inhibiting cell growth after combining with the cell-penetrating peptide R9: CCK-8, 24 hours, peptide connected with R9
Procedure: (§1) 5.1 Referring to FIG. 5A, the polypeptides R9, RM3, and RSM3 were prepared into a 50 mM mother solution with sterile pure water, and the mother solution was gradiently diluted with a basal culture medium, the diluted peptide solution was added to 96-well plates pre-laid with PC3 and DU145 cells, 100 μL per well, and three replicates for each concentration. After 24 h of treatment, the OD value at 450 nm was measured with a CCK-8 kit, and the results were calculated and analyzed.
(§2) FIG. 5B illustrates a clone formation experiment, the grown PC3 and DU145 cells were digested with 0.25% trypsin and the number of cells were counted, 300 cells were added to each well of the six-well plate, and 2 ml of complete culture medium was added to continue culturing for 24 hours. M3, R9, RM3, and RSM3 were added to each well and cultured for 7 days, the medium was discarded, the cells were washed, stained with crystal violet, and then microscopically photographed, and the number of the cells were counted.
(§3) Referring to FIG. 6, the above two polypeptides were prepared into a 50 mM mother solution with sterile pure water, and then gradiently diluted with a basal culture medium, the diluted peptide solution was added to a 96-well plate pre-laid with PC3 and DU145 cells, 100 μL per well, and three replicates for each concentration. After 24 hours of treatment, the OD value was measured at 450 nm using CCK-8, and the obtained values were calculated.

DU145 cells = assay: Growth/proliferation inhibition, CCK-8 and clone formation, DU145; assay type: cell-based, human; settings: for effect of inhibiting cell growth after combining with the cell-penetrating peptide R9: CCK-8, 24 hours, peptide connected with R9
Procedure: as §1, §2, §3

[1] = Drug safety assessment in vivo, blood indexes; parameters: species or system C57BL/C mice; settings: 50 mg/kg intraperitoneal once, 24 hours; for platelets (PLT) / red blood cells (RBC) / white blood cells (WBC) in the blood: compared with R9 and PBS; for white blood cells (WBC) in the blood / hemoglobin (HMGB): within the normal range
Procedure: Referring to FIGS. 7A to 7H, (A) drug safety assessment in vivo: C57BL/C mice raised for 7 weeks were intraperitoneally injected with a dose of 50 mg/kg (R9, RM3, RSM3) once, after 24 hours, the mice were sacrificed and the blood of the mice was taken to measure indexes such as white blood cells, platelets, red blood cells, and hemoglobin, to analyze toxicity of the drug to normal animals.

[2] = system: PC3 prostate cancer cells with high expression of METTL3; assay: Anti-tumor experiment in vivo, PC3 prostate tumor-bearing mouse model; parameters: species or system BALB/c nude mice; settings: for body weight changes: tumor model mice
Procedure: (B) Anti-tumor experiment in vivo: a prostate tumor-bearing mouse model is selected, the specific steps to construct the animal model are as follows: PC3 prostate cancer cells with high expression of METTL3 were cultured to a logarithmic growth phase, the PC3 prostate cancer cells were digested, collected, and prepared into a cell suspension with a concentration of 1×10^7 cells/mL. 4 to 6 week-old male and female BALB/c nude mice were taken, and were injected with 100 μL of cell suspension into the back of the hind limbs, to establish a tumor model. After a diameter of the mouse tumor grows to about 0.5 cm, the mice were randomly divided into groups according to the experimental requirements: PBS, R9, RM3, RSM3, etc. Peritumoral administration is performed on the mice, once every two days, for two consecutive weeks.

[3] = system: DU145 (human prostate cancer cells); settings: for effect of mutation of R9-MPF13 on the anti-proliferative effect: relative to R9-MPF13; for inhibitory effect on the proliferation of prostate cancer cells DU145: DU145, 48 hours, MTT
Procedure: 5.2 Some of the polypeptides in Table 1 were prepared into a 10 mM mother solution with sterile pure water, and the mother solution is gradiently diluted with a basal culture medium, the diluted polypeptide solution was added to 96-well plates with DU145 cells pre-laid, 100 μL per well, and four replicates for each concentration. After 48 hours of treatment, the modified MTT kit was used to treat and measure the OD value at 580 nm, and the results were calculated and analyzed.
(§4) The experiment method includes: the polypeptide was prepared into a 10 mM mother solution with sterile pure water, and after gradient dilution with a basal culture medium, the diluted polypeptide solution was added to a 96-well plate with various cells pre-laid, 100 μL per well, and four replicates for each concentration. After 48 hours of treatment, the modified MTT kit was used to treat and measure the OD value at 580 nm, and the results are calculated and analyzed.

[4] = system: SaoS2 (human osteosarcoma cells); settings: 48 h
Procedure: as §4

[5] = system: HepG2 (human hepatoblastoma cells); settings: 48 h
Procedure: as §4

[6] = system: HCT116 (colorectal cancer cell line); settings: 48 h
Procedure: as §4

[7] = system: A375 (human malignant melanoma); settings: 48 h
Procedure: as §4

[8] = system: Hela (human anterior cervical cancer cells); settings: 48 h
Procedure: as §4

[9] = system: A549 (lung cancer human alveolar basal epithelial cells); settings: 48 h
Procedure: as §4

[10] = system: K562 (human chronic myeloid leukemia cells); settings: 48 h
Procedure: as §4

[11] = system: OVCAR-3 (ovarian adenocarcinoma cells); settings: 48 h
Procedure: as §4

METTL3 and METTL14 = METTL3 and METTL14 (Homo sapiens, UniProt Q86U44); assay: Binding to METTL3 and METTL14 proteins in vitro
[12] = CCK-8 24 h, clone formation 7 days
[13] = peritumoral administration once every two days for two weeks

METTL3 and METTL14, sequence (Q86U44 whole entry, species assumed): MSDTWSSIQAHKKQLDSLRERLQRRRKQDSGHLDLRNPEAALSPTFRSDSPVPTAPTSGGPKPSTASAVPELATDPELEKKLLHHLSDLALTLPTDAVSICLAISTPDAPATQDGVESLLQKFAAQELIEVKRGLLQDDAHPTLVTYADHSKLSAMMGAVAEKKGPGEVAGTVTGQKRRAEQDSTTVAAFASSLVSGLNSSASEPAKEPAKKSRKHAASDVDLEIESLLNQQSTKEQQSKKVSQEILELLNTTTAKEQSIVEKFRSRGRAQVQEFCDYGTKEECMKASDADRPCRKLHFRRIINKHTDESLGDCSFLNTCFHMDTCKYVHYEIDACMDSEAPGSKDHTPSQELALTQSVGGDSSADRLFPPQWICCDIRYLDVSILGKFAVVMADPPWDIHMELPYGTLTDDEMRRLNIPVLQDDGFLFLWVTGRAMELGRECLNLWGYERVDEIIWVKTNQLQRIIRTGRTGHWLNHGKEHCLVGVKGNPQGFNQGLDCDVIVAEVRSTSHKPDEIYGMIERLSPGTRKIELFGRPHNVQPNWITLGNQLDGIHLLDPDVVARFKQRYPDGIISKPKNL
T1 sequence (Q86U44 2-580 limits assumed): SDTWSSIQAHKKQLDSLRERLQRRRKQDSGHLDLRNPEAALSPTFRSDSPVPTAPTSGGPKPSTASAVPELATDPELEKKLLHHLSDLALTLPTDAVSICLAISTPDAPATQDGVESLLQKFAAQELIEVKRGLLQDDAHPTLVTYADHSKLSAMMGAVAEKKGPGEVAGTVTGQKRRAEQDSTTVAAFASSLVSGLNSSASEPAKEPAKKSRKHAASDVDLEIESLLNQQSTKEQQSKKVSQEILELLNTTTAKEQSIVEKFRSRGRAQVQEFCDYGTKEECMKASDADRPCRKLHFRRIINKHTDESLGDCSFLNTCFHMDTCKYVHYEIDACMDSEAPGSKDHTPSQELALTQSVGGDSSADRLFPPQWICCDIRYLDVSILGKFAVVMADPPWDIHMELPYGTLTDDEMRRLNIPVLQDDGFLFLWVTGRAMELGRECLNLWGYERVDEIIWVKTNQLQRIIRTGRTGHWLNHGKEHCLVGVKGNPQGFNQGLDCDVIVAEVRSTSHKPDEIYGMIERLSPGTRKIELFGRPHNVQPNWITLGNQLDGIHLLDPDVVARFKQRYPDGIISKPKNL

RSM3: stapled peptide from RM3, 10th and 17th cysteines connected through 4,4-bis(bromomethyl)biphenyl (RRRRRRRRRCMELGRECLNLW; linker 10-17 via 4,4‑bis(bromomethyl)biphenyl)
inhibition of RNA methylation (m6A) (RNA methylation): better in terms of stability and methylation inhibition effect | inhibition of RNA methylation (m6A) (RNA methylation; listed as R SM3): significantly inhibit the RNA methylation | inhibition of the expression of METTL3 (METTL3): inhibit the expression of METTL3 | inhibitory effect on the growth of prostate cancer cells (PC3 cells; [12]): good inhibitory effect | inhibitory effect on the growth of prostate cancer cells (DU145 cells; [12]): good inhibitory effect | platelets (PLT) [1]: no significant effect | red blood cells (RBC) [1]: no significant effect | white blood cells (WBC) in the blood [1]: slightly increased this index | hemoglobin (HMGB) [1]: a certain reducing effect | tumor mass ([2]; compared with R9 group and PBS, peritumoral administration once every two days for two weeks): significantly less | effect of inhibiting the growth of prostate tumors ([2]; overall comparison of the METTL3 polypeptide inhibitors): more effective | tumor volume changes [2, 13]: significantly inhibit the increase in tumor volume | body weight changes [2, 13]: no significant effect on the body weight

RRRRRRRRRRAMELGRECLNLA [Polypeptide R9-RA]
effect of mutation of R9-MPF13 on the anti-proliferative effect [3]: weaken the anti-proliferative effect

FGRPHNVQ [Polypeptide M2, tested after being connected with the cell-penetrating peptide R9]
effect of inhibiting cell growth after combining with the cell-penetrating peptide R9 (PC3 cells): certain effect of inhibiting cell growth | effect of inhibiting cell growth after combining with the cell-penetrating peptide R9 (DU145 cells): certain effect of inhibiting cell growth

RRRRRRRRRRRMELGRELLNLW [Polypeptide R9-RRL]
effect of mutation of R9-MPF13 on the anti-proliferative effect [3]: enhance the anti-proliferative effect

RRRRRRRRRRKMELGREYLNLW [Polypeptide R9-RKY]
effect of mutation of R9-MPF13 on the anti-proliferative effect [3]: enhance the anti-proliferative effect

RRRRRRRRRRAMEEGRECLNLW [Polypeptide R9-RE]
effect of mutation of R9-MPF13 on the anti-proliferative effect [3]: weaken the anti-proliferative effect

RRRRRRRRRRKMELGREFLNLW [Polypeptide R9-RKF]
effect of mutation of R9-MPF13 on the anti-proliferative effect [3]: enhance the anti-proliferative effect

QLQRIIRTGRTGHWLNHG [Polypeptide M1, tested after being connected with the cell-penetrating peptide R9]
effect of inhibiting cell growth after combining with the cell-penetrating peptide R9 (PC3 cells): certain effect of inhibiting cell growth | effect of inhibiting cell growth after combining with the cell-penetrating peptide R9 (DU145 cells): certain effect of inhibiting cell growth

RRRRRRRRRRKMELGREMLNLW [Polypeptide R9-RKM]
effect of mutation of R9-MPF13 on the anti-proliferative effect [3]: enhance the anti-proliferative effect

CSCC[C@H](NC(=O)[C@H](CS)NC(=O)[C@H](CCCNC(=N)N)NC(=O)[C@H](CCCNC(=N)N)NC(=O)[C@H](CCCNC(=N)N)NC(=O)[C@H](CCCNC(=N)N)NC(=O)[C@H](CCCNC(=N)N)NC(=O)[C@H](CCCNC(=N)N)NC(=O)[C@H](CCCNC(=N)N)NC(=O)[C@H](CCCNC(=N)N)NC(=O)[C@@H](N)CCCNC(=N)N)C(=O)N[C@@H](CCC(=O)O)C(=O)N[C@@H](CC(C)C)C(=O)NCC(=O)N[C@@H](CCCNC(=N)N)C(=O)N[C@@H](CCC(=O)O)C(=O)N[C@@H](CS)C(=O)N[C@@H](CC(C)C)C(=O)N[C@@H](CC(N)=O)C(=O)N[C@@H](CC(C)C)C(=O)N[C@@H](Cc1c[nH]c2ccccc12)C(N)=O [RM3] (H-RRRRRRRRRCMELGRECLNLW-NH2)
platelets (PLT) [1]: no significant effect | red blood cells (RBC) [1]: no significant effect | white blood cells (WBC) in the blood [1]: slightly increased this index | hemoglobin (HMGB) [1]: a certain reducing effect | body weight changes [2, 13]: no significant effect on the body weight

RRRRRRRRRRKMELGRELLNLW-NH2 (C-terminus assumed) [Polypeptide R9-RKL]
pIC50 ([3]; 48 h): > 4.96 | inhibitory effect on the proliferation of prostate cancer cells DU145 [3]: better inhibitory effect | effect of mutation of R9-MPF13 on the anti-proliferative effect [3]: enhance the anti-proliferative effect | pIC50 [4]: > 4.96 | pIC50 [5]: > 4.96 | pIC50 [6]: > 4.96 | pIC50 [7]: > 4.96 | pIC50 [8]: > 4.96 | pIC50 [9]: > 4.96 | pIC50 [10]: > 4.96 | pIC50 [11]: > 4.96

RRRRRRRRRRKWCLGRELLCLW (stapled peptide precursor) [Polypeptide R9-PSRKWL]
inhibitory effect on the proliferation of prostate cancer cells DU145 [3]: better inhibitory effect

ELGRECLNLW [Polypeptide M3]
binding to the proteins of METTL3 and METTL14 (METTL3 and METTL14): can bind

RRRRRRRRRRKWELGRELLNLW [Polypeptide R9-RKWL]
inhibitory effect on the proliferation of prostate cancer cells DU145 [3]: better inhibitory effect | effect of mutation of R9-MPF13 on the anti-proliferative effect [3]: enhance the anti-proliferative effect
